# Laboratory results as given in patent US20030032158A1, “Method of modulating the efficiency of translation termination and degradation of aberrant mRNA involving a surveillance complex comprising human Upf1p,eucaryotic release factor 1 and eucaryotic release factor 3” (University of Medicine and Dentistry of New Jersey, priority 1998, published 2003).
# “Also recorded” adds a separate entry of the source.
# Columns and labels:
# Upf1p-eRF3 interaction = molecular target: T1, Upf1p-eRF3 interaction (Saccharomyces cerevisiae, UniProt P30771); assay: GST-eRF3 pull-down of purified FLAG-Upf1p, immunoblot; assay type: binding, yeast; details: 1 mM ATP, 1 mM GTP or 100 μg/ml poly(U) RNA
# T1 construct: made in house; host or cells: GST-eRF3: E. coli BL21(DE3) pLysS with pGEX2T-SUP35
# T1 sequence (P30771 1-971): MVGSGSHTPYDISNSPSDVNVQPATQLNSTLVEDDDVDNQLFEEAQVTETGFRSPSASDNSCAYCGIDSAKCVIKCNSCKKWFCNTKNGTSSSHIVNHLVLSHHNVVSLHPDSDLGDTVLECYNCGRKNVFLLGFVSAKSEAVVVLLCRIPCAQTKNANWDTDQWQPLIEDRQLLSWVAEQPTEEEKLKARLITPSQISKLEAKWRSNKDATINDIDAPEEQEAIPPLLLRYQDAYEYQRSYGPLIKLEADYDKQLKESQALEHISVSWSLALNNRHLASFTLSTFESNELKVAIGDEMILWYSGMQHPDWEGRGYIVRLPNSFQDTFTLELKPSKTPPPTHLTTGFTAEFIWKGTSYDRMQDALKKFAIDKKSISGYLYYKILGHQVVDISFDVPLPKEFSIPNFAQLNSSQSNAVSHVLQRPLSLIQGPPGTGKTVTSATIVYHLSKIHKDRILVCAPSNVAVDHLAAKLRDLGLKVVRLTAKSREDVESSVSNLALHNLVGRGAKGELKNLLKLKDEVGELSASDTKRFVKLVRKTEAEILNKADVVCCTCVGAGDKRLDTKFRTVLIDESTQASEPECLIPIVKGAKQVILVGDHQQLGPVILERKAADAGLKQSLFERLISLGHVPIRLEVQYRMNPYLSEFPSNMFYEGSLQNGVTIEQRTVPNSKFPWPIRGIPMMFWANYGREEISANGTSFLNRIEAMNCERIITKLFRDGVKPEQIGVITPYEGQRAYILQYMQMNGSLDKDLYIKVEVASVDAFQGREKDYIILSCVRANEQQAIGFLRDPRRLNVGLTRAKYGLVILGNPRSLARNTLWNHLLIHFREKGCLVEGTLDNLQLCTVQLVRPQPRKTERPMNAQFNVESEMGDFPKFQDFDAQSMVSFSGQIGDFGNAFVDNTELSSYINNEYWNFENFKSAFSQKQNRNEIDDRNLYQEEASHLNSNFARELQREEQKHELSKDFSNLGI
# Procedure: FIG. 3. eRF3 and RNA compete for binding to Upf1p. (A) Poly(U) RNA prevents Upf1p from binding to eRF3. Reaction mixtures were prepared as described in FIG. 1B, except that binding was performed in TBSTB (TBST with 100 μg/ml BSA) and reaction mixtures contained 1 mM ATP, 1 mM GTP, or 100 μg/ml poly(U) RNA as indicated above each lane. The reaction mixtures were mixed for 1 hour at 4° C. Following mixing, the complexes were washed as in FIG. 1B with TBSTB containing 1 mM ATP, 1 mM GTP, or 100 μg/ml poly(U) RNA as indicated above each lane. […] Reaction mixtures were prepared as in FIG. 1B, in the presence or absence of […] poly(U) RNA as indicated above each lane. (C) eRF3 inhibits Upf1p RNA binding. A uniformly labeled 32 nt RNA was synthesized by SP6 transcription of SstI digested pGEM5Zf(+). The indicated amounts of GST-eRF3, were incubated with 200 ng Upf1p for 15 minutes at 4° C. 50 fmol of the RNA substrate was added and incubated for 5 minutes. Stop solution was added, and reactions electrophoresed in a 4.5% native PAGE gel (0.5×TBE, 30:0.5 acrylamide:bisacrylamide, with 5% glycerol). […]
# Further, purified Flag-Upf1p with poly(U) RNA was incubated in the presence or absence of ATP. […] GST-eRF3 was added to the reaction mixtures and the Upf1-eRF3 interaction was monitored by immunoblotting analysis as before.
# [1] = test system: isogenic wild-type and upf3Δ strains; details: cells harboring the mof4-1 allele of UPF1; previous results; cited from earlier work
# [2] = test system: −1 ribosomal frameshifting; assay: β-galactosidase assay of −1 ribosomal frameshifting with plasmids pF8 / pTI25; assay type: cell-based, Saccharomyces cerevisiae
# Procedure: Killer assays, frameshifting assays and extraction and analysis of total nucleic acids:The killer assay was carried out as previously described (Dinman, J. D., and Wickner, R. B. (1992)) by replica plating colonies onto 4.7 MB plates newly seeded with a lawn of 5×47 killer indicator cells (0.5 ml of a suspension at 1 unit of optical density at 550 nm per ml per plate). After 2 days at 20° C., killer activity was observed as a zone of growth inhibition around the killer colonies. To quantitate loss of killer activity, colonies that had been identified as killer^+ were re-streaked for single colonies and the percentage of killer^− colonies were determined. The efficiencies of −1 frameshifting were determined as previously described (Cui, Y., Dinman, J. D., and Peltz, S. W. (1996); Dinman, J. D., Ruiz-Echevarria, M. J., Czaplinski, K. and Peltz, S. W. (1997b)) using the 0-frame control (pTI25) and −1 reporter (pF8) plasmids.
# Methods to measure efficiencies of programmed ribosomal frameshifting in vivo have been described previously (Cui, Y., Dinman, J. D., and Peltz, S. W. (1996); Dinman, J. D., Icho, T., and Wickner, R. B. (1991); Dinman, J. D., Ruiz-Echevarria, M. J., Czaplinski, K. and Peltz, S. W. (1997b)). […] Similarly, the +1 ribosomal frameshift efficiency is calculated based on the pJD104 to pTI25 β-gal ratios. […]
# [3] = test system: isogenic wild-type and upf3Δ strains; assay: Paromomycin sensitivity, zone of growth inhibition around a disc on a lawn of cells; assay type: cell-based, Saccharomyces cerevisiae
# Procedure: FIG. 11. Paromomycin sensitivity was monitored in isogenic wild-type and upf3Δ strains by placing a disc containing 1 mg of paromomycin onto a lawn of cells and determining the zone of growth inhibition around the disc.
# Paromomycin sensitivity was monitored in isogenic wild-type and upf3Δ strains by placing a disc containing 1 mg of paromomycin onto a lawn of cells and determining the zone of growth inhibition around the disc (FIG. 11).
SMILES,Effect on interaction between Upf1p and eRF3 (Upf1p-eRF3 interaction),Paromomycin sensitivity [1],"β-galactosidase activity (−1 frameshift reporter) ([2]; upf3Δ cells carrying pF8, liquid media, different concentrations of the drug)","β-galactosidase activity ([2]; wild-type cells containing pF8, or any strain carrying pTI25 (zero frame control))",Paromomycin sensitivity (zone of growth inhibition) ([3]; upf1Δ or upf2Δ strains),"Paromomycin sensitivity (zone of growth inhibition) ([3]; upf3Δ strain vs isogenic wild-type, disc containing 1 mg of paromomycin)"
Nc1ncnc2c1ncn2[C@@H]1O[C@H](COP(=O)(O)OP(=O)(O)OP(=O)(O)O)[C@@H](O)[C@H]1O [ATP],did not affect the interaction; also recorded: did not prevent association of Upf1p with eRF3,–,–,–,–,–
Nc1nc2c(ncn2[C@@H]2O[C@H](COP(=O)(O)OP(=O)(O)OP(=O)(O)O)[C@@H](O)[C@H]2O)c(=O)[nH]1 [GTP],not affected,–,–,–,–,–
NC[C@@H]1O[C@H](O[C@H]2[C@@H](O)[C@H](O[C@@H]3[C@@H](O)[C@H](N)C[C@H](N)[C@H]3O[C@H]3O[C@H](CO)[C@@H](O)[C@H](O)[C@H]3N)O[C@@H]2CO)[C@H](N)[C@@H](O)[C@@H]1O [paromomycin],–,increased sensitivity to paromomycin than the isogenic wild-type strain,increased continuously with increased concentrations of paromomycin,unaffected,Neither the upf1Δ or upf2Δ strains demonstrate hypersensitivity,more sensitive to paromomycin than the isogenic wild-type strain
